Experimental data published in patent US20230017948A1, “COMBINATION THERAPY USING FABP5 INHIBITORS WITH TAXANES FOR TREATMENT OF CANCER” (The Research Foundation for The State University of New York, priority 2019, published 2023).

Columns and labels:
PCa cell = conditions: in vitro and in vivo (Al-Jameel, W. et al. 2017); cited from earlier work
PC3 cells = test: MTT cytotoxicity assay, single drugs and combinations, PC3 cells; format: cell-based; conditions: Homo sapiens, PC-3, 72-hour incubation
[1] = MTT cytotoxicity assay, RWPE-1 cells (normal prostate cell-line); format: cell-based; conditions: human, RWPE-1, MTT, 72-hour incubation
[2] = MTT cytotoxicity assay, WI-38 cells (normal lung cell-line); format: cell-based; conditions: human, WI-38, MTT, 72-hour incubation
22Rv1 cells = test: cells; conditions: Homo sapiens, 22Rv1, 72 h, read-out: cytotoxicity IC50
DU-145 cells = test: MTT cytotoxicity assay, single drugs and combinations, DU-145 cells; format: cell-based; conditions: Homo sapiens; DU-145, MTT, 72-hour incubation
[3] = test system: PC3 cells implanted subcutaneously; test: Subcutaneous PC3 tumor growth in male BALB/c nude mice; format: in vivo; conditions: ip
Description: Male BALB/c nude mice (BALB/cOlaHsd-Foxnlnu, 20-30 g, 7-8 weeks old) (Envigo RMS Inc, Indianapolis, Ind.) were used for all experiments. Animals were housed individually at room temperature and were kept on a 12:12-hour light:dark cycle with access to food and water ad libitum. Euthanasia was carried out utilizing CO2 asphyxiation. All of the experiments were approved by the Stony Brook University Animal Care and Use Committee.
Male BALB/c nude mice were subcutaneously inoculated with PC3 cells. Briefly, cells (1×10^6 per mouse) were resuspended in 100 μL of a 1:1 mixture of phosphate-buffered saline (PBS):Matrigel (Corning Inc, Corning, N.Y.) and implanted into a single dorsal lateral flank using a 21G needle. Tumor length (L) and tumor width (W) were measured twice weekly using digital calipers, and tumor volume (V) was calculated as (V═[L×W2]/2). When tumor volume reached approximately 150 to 200 mm3, animals were grouped and drug administration commenced. Humane endpoints for all animals were as follows: animals carrying a tumor burden greater than 35 days, body weight (which was recorded twice weekly) decreasing by greater than 15%, tumor ulceration, paralysis, failure to groom, bleeding, respiratory distress, and/or tumor volume reaching 1500 mm3.
SBFI-102, SBFI-103, and docetaxel were each reconstituted in a 1:1:8 vehicle consisting of dimethyl sulfoxide (DMSO) (Thermo Fisher Scientific, Hampton, N.H.):Cremaphor-EL (Sigma-Aldrich):saline. SBFI-102 and SBFI-103 were administered via intraperitoneal injection (ip) using a 27G needle at 20 mg/kg daily. Docetaxel was administered i.p. at 5 or 10 mg/kg weekly. All drugs were administered in a volume of 10 μL/g body weight.
All data were obtained from at least three independent experiments and then values described in each figure legend depict each independent trial or animal. Data for all in vivo experiments were analyzed using a one-way analysis of variance with the Tukey post hoc test (GraphPad Prism, version 8.0.2). Data are represented as means±SEM and P<0.05 was considered statistically significant. […]

[4] = 20 mg/kg, once daily, from day 15

| Structure (SMILES) | effect on PCa cell growth, migration, invasion, tumor formation and metastasis (PCa cell) | IC50 (PC3 cells) | IC50 at 72 h [1] | IC50 at 72 h [2] | IC50 (22Rv1 cells) | IC50 (DU-145 cells) | tumor growth [3, 4] | tumor growth ([3]; docetaxel 10 mg/kg, once weekly) |
| --- | --- | --- | --- | --- | --- | --- | --- | --- |
| O=C(O)C1[C@H](c2ccccc2)C(C(=O)Oc2cccc3ccccc23)[C@H]1c1ccccc1 (some centres unmarked) [SBFI-26] | suppresses PCa cell growth, migration, invasion, tumor formation, and metastasis | – | – | – | – | – | – | – |
| COc1ccccc1C1[C@H](C(=O)O)[C@H](c2ccccc2OC)[C@H]1C(=O)Oc1cccc2ccccc12 (some centres unmarked) [SBFI-102] | – | 11.4 µM | 26 µM | 29.4 µM | 10.1 µM | 8.9 µM | significantly reduced tumor growth | – |
| COc1ccccc1C1[C@H](C(=O)O)[C@H](c2ccccc2OC)[C@H]1C(=O)OCC1c2ccccc2-c2ccccc21 (some centres unmarked) [SBFI-103] | – | 6.3 µM | 20.6 µM | 29.6 µM | 3.1 µM | 3.3 µM | significantly reduced tumor growth | – |
| CO[C@H]1C(=O)[C@]2(C)[C@@H](OC)C[C@H]3OC[C@@]3(OC(C)=O)[C@H]2[C@H](OC(=O)c2ccccc2)[C@]2(O)C[C@H](OC(=O)[C@H](O)[C@@H](NC(=O)OC(C)(C)C)c3ccccc3)C(C)=C1C2(C)C [cabazitaxel, reference compound] | – | 0.0016 µM | – | – | 0.0003 µM | 0.0002 µM | – | – |
| CC(=O)O[C@@]12CO[C@@H]1C[C@H](O)[C@@]1(C)C(=O)[C@H](O)C3=C(C)[C@@H](OC(=O)[C@H](O)[C@@H](NC(=O)OC(C)(C)C)c4ccccc4)C[C@@](O)([C@@H](OC(=O)c4ccccc4)[C@H]21)C3(C)C [docetaxel, reference compound] | – | 0.0019 µM | – | – | 0.0003 µM | 0.0008 µM | – | near complete inhibition of growth |
